Reference: US6867179B1, “Methods of inducing hair growth and coloration” (Trustees of Boston University, priority 1994, dated 2005)

Columns and labels:
p75 = assay: Regulation of p75 mRNA in melanocytes by agents that increase cAMP; type: cell-based, human; settings: forskolin 50 μM or IBMX 100 μM, within 24 hours
Experimental: MC were stimulated with growth factor-containing medium supplemented with forskolin (50 μM) or IBMX (100 μM) that increase cAMP levels. […] To determine if ultraviolet (UV) irradiation that induces cutaneous injury upregulates p75, MC were sham- or UV-irradiated with solar simulated light (30 mJ/cm^2, metered at 285+5 nm). […] Furthermore, 48 hours after irradiation, cAMP levels were >70% decreased in UV- vs sham-irradiated cells.

p75^NTR = target: T1, p75^NTR (Homo sapiens, UniProt P08138); settings: lysine 34 replaced by alanine; cited from earlier work
T1 sequence (P08138 29-427): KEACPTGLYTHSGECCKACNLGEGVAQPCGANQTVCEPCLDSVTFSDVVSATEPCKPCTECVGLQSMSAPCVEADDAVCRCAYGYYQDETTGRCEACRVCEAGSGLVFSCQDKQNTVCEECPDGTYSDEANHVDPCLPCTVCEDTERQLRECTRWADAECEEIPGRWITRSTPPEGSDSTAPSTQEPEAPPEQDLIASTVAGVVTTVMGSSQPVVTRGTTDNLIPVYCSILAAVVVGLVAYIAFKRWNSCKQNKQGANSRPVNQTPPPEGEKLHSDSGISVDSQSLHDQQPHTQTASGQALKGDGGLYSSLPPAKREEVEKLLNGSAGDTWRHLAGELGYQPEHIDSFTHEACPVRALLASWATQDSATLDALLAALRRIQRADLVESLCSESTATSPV

Molecule: CC(C)Cn1c(=O)n(C)c(=O)c2[nH]cnc21 [IBMX]
- p75 mRNA upregulation (p75): substantially inhibited this upregulation

Molecule: mutant NGF: NGF in which lysine (K) at position 34 is replaced by alanine (A)
- Lowering of affinity for p75NTR relative to NGF (p75^NTR): 50%
